From patent US8895585B2, “Nicotinamide derivative or salt thereof” (FUJIFILM Corporation, priority 2010, dated 2014)

Molecular target: T1, glutathione S-transferase (GST)-fused full-length human Syk protein (Homo sapiens, UniProt P43405)
T1 construct: (GST)-fused full-length human Syk protein; GST (glutathione S-transferase); purchased Carna Biosciences
Assay: Syk enzyme assay
Type: biochemical
Conditions: Syk enzyme assay, Test Example 1; read-out: IC50 of Syk-inhibitory activity
Procedure, shortened: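 GST-tagged full-length human Syk (baculovirus) preincubated with compound 15 min at room temperature (pH 7.0, 10 mM MgCl2), then reacted 40 min with 0.4 μM biotinylated peptide substrate and 27 μM ATP (final). Phosphorylation read by HTRF (615/665 nm) after EDTA stop; IC50 reported.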

SMILES	IC50 [nM]
NC(=O)c1cc(F)c(N[C@@H]2CCCC[C@@H]2N)nc1Nc1ccnc(CO)c1 (relative stereo) [Example 004-194, 6-(cis-2-aminocyclohexylamino)-5-fluoro-2-((2-(hydroxymethyl)pyridin-4-yl)amino)nicotinamide]	10 to 50
CC(C)COCCOc1ccc2cc(Nc3nc(NC4CCCCC4N)c(F)cc3C(N)=O)ccc2n1 (centres unmarked) [Example 002-109]	10 to 50
C[C@H](Nc1nc(Nc2ccc3ncccc3c2)c(C(N)=O)cc1F)[C@@H](C)N [Example 006-225, 6-(((2S,3R)-3-aminobutan-2-yl)amino)-5-fluoro-2-((quinolin-6-yl)amino)nicotinamide]	10 to 50
Cc1cc(Nc2nc(N[C@H](CCCN(C)C)[C@H](C)N)c(F)cc2C(N)=O)cnc1C [Example 046-000]	100 to 1000
COCC(C)Oc1ccc2cc(Nc3nc(NC4CCCCC4N)c(F)cc3C(N)=O)ccc2n1 (centres unmarked) [Example 002-098]	< 10
NC(=O)c1cc(F)c(NCC2CCCCN2)nc1Nc1ccc2ncccc2c1 (centres unmarked) [Example 014-021]	100 to 1000
CN1CCN(c2ccc(Nc3nc(NC4CCCCC4N)c(F)cc3C(N)=O)cn2)CC1 (centres unmarked) [Example 002-021]	10 to 50
CCn1nc(C2CC2)c2cc(Nc3nc(N[C@H](CC4CC4)[C@H](C)N)c(F)cc3C(N)=O)ccc21 [Example 006-549, 6-(((2R,3S)-3-amino-1-cyclopropylbutan-2-yl)amino)-2-((3-cyclopropyl-1-ethyl-1H-indazol-5-yl)amino)-5-fluoronicotinamide]	< 10
NC(=O)c1cc(F)c(N[C@@H]2CCCC[C@@H]2N)nc1Nc1cnc2cc(-n3cccn3)ccc2c1 (relative stereo) [Example 004-210, 2-((7-(1H-pyrazol-1-yl)quinolin-3-yl)amino)-6-(cis-2-aminocyclohexylamino)-5-fluoronicotinamide]	< 10
CCOc1cnc2cc(Nc3nc(N[C@@H]4CCCC[C@@H]4N)c(F)cc3C(N)=O)ccc2n1 (relative stereo) [Example 004-176, 6-(cis-2-aminocyclohexylamino)-2-((2-ethoxyquinoxalin-6-yl)amino)-5-fluoronicotinamide]	< 10
NC(=O)c1cc(F)c(N[C@@H]2CCCC[C@@H]2N)nc1Nc1cc(F)cc2c1ccn2CCN1CCOCC1 (relative stereo) [Example 004-083, 6-(cis-2-aminocyclohexylamino)-5-fluoro-2-((6-fluoro-1-(2-morpholinoethyl)-1H-indol-4-yl)amino)nicotinamide]	< 10
Cc1nccn1-c1ccc(Nc2nc(N[C@@H]3CCCC[C@@H]3N)c(F)cc2C(N)=O)cn1 [Example 006-536, 6-(((1R,2S)-2-aminocyclohexyl)amino)-5-fluoro-2-((6-(2-methyl-1H-imidazol-1-yl)pyridin-3-yl)amino)nicotinamide]	100 to 1000
CC(C)C[C@H](CN)Nc1nc(Nc2ccc3c(cnn3CC(F)F)c2)c(C(N)=O)cc1F [Example 006-422, (R)-6-((1-amino-4-methylpentan-2-yl)amino)-2-((1-(2,2-difluoroethyl)-1H-indazol-5-yl)amino)-5-fluoronicotinamide]	< 10
COCCOc1ccccc1-c1cncc(Nc2nc(N[C@@H]3CCCC[C@@H]3N)c(F)cc2C(N)=O)c1 (relative stereo) [Example 004-185, 6-(cis-2-aminocyclohexylamino)-5-fluoro-2-((5-(2-(2-methoxyethoxy)phenyl)pyridin-3-yl)amino)nicotinamide]	< 10
NC(=O)c1cc(F)c(NCc2ccc[nH]2)nc1Nc1ccc2ncccc2c1 [Example 012-003]	100 to 1000
NC(=O)c1cc(F)c(NC2CCCCC2N)nc1Nc1ccc(N2CCCCC2=O)nc1 (centres unmarked) [Example 002-157]	100 to 1000
NC(=O)c1cc(F)c(N[C@@H](C(N)=O)c2ccccc2)nc1Nc1ccc2ncsc2c1 [Example 012-004]	10 to 50
CCCOc1ccc2cc(Nc3nc(N[C@@H]4CCCC[C@@H]4N)c(F)cc3C(N)=O)cnc2c1 (relative stereo) [Example 004-174, 6-(cis-2-aminocyclohexylamino)-5-fluoro-2-((7-propoxyquinolin-3-yl)amino)nicotinamide]	< 10

SMILES	IC50 [nM]
COc1cc(Nc2nc(NCc3cc4ccccc4[nH]3)c(F)cc2C(N)=O)cc(OC)c1 [Example 016-016]	100 to 1000
NC(=O)c1cc(F)c(NC2CCCC[C@@H]2N)nc1Nc1cnc2c(NS(=O)(=O)Cc3ccccc3)cccc2c1 (stereo partly drawn) [Example 41-9, 6-(cis-2-aminocyclohexylamino)-5-fluoro-2-((8-(phenylmethylsulphonamide)quinolin-3-yl)amino)nicotinamide]	10 to 50
COCCOc1cc(Nc2nc(N[C@@H]3CCCC[C@@H]3N)c(F)cc2C(N)=O)cc2cccnc12 (relative stereo) [Example 004-139, 6-(cis-2-aminocyclohexylamino)-5-fluoro-2-((8-(2-methoxyethoxy)quinolin-6-yl)amino)-nicotinamide]	< 10
COc1cc(Nc2nc(N[C@@H]3CCCC[C@@H]3N)c(F)cc2C(N)=O)cc2cccnc12 (relative stereo) [Example 004-138, 6-(cis-2-aminocyclohexylamino)-5-fluoro-2-((8-methoxyquinolin-6-yl)amino)nicotinamide]	< 10
NC(=O)c1cc(F)c(NCc2ccccn2)nc1Nc1ccc2ncccc2c1 [Example 012-016]	100 to 1000
NC(=O)c1cc(F)c(N[C@@H]2CCCC[C@@H]2N)nc1Nc1cnc2nccnc2c1 [Example 004-021]	100 to 1000
COc1cc(Nc2nc(N[C@@H]3CCCC[C@@H]3N)c(F)cc2C(N)=O)cnc1N1CCOCC1 [Example 004-233, 6-(((1R,2S)-2-aminocyclohexyl)amino)-5-fluoro-2-((5-methoxy-6-morpholinopyridin-3-yl)amino)nicotinamide]	100 to 1000
COc1ncc(Nc2nc(NC3CCCCC3N)c(F)cc2C(N)=O)cc1-c1ccco1 (centres unmarked) [Example 002-150]	10 to 50
CCCc1nn(C2CC2)c2ccc(Nc3nc(N[C@@H]4CCCC[C@@H]4N)c(F)cc3C(N)=O)cc12 [Example 006-479, 6-(((1R,2S)-2-aminocyclohexyl)amino)-2-((1-cyclopropyl-3-propyl-1H-indazol-5-yl)amino)-5-fluoronicotinamide]	< 10
NC(=O)c1cc(F)c(N[C@@H]2CCCC[C@@H]2N)nc1Nc1cncc(-c2cc(F)ccc2F)c1 (relative stereo) [Example 004-205, 6-(cis-2-aminocyclohexylamino)-2-((5-(2,5-difluorophenyl)pyridin-3-yl)amino)-5-fluoronicotinamide]	< 10
NCCNc1nc(Nc2cccc(C(=O)N3CCCCC3)c2)c(C(N)=O)cc1F [Example 031-002]	100 to 1000
NC(=O)c1cc(Nc2nc(N[C@@H]3CCCC[C@@H]3N)c(F)cc2C(N)=O)ccn1 [Example 029-012]	< 10
NC(=O)c1cc(F)c(NC2CCCCC2N)nc1Nc1cncc(NC(=O)c2ccncc2)c1 (centres unmarked) [Example 027-022]	10 to 50
CC(C)C[C@H](CN)Nc1nc(Nc2cccc3cccnc23)c(C(N)=O)cc1F [Example 006-230, (R)-6-((1-amino-4-methylpentan-2-yl)amino)-5-fluoro-2-((quinolin-8-yl)amino)nicotinamide]	10 to 50
COc1ncc(Nc2nc(NC3CCCCC3N)c(F)cc2C(N)=O)cc1-n1cccn1 (centres unmarked) [Example 002-154]	10 to 50
COCCOc1cccc2cc(Nc3nc(N[C@@H]4CCCC[C@@H]4N)c(F)cc3C(N)=O)cnc12 (relative stereo) [Example 004-121, 6-(cis-2-aminocyclohexylamino)-5-fluoro-2-((8-(2-methoxyethoxy)quinolin-3-yl)amino)-nicotinamide]	< 10
NC(=O)c1cc(F)c(N[C@H](c2ccccc2)[C@@H](N)c2ccccc2)nc1Nc1ccc2ncccc2c1 (racemic) [Example 006-135, 6-(((1R,2S)-2-amino-1,2-diphenylethyl)amino)-5-fluoro-2-(quinolin-6-ylamino)nicotinamide 6-(((1S,2R)-2-amino-1,2-diphenylethyl)amino)-5-fluoro-2-(quinolin-6-ylamino)nicotinamide]	< 10

Same assay, conditions: read-out: Syk-inhibitory activity (IC50)

SMILES	IC50 [nM]
CC(=O)Nc1cccc(Nc2nc(NCCN)c(F)cc2C(N)=O)c1 [Example 6-24, 2-((3-acetylaminophenyl)amino)-6-((2-aminoethyl)amino)-5-fluoronicotinamide]	≤ 1000
COc1cc(Nc2nc(NCC3CC3)c(F)cc2C(N)=O)cc(OC)c1 [Example 16-8, 6-((cyclopropylmethyl)amino)-2-((3,5-dimethoxyphenyl)amino)-5-fluoronicotinamide]	≤ 1000
CNC(=O)c1cc(Nc2nc(N[C@@H]3CCCC[C@@H]3N)c(F)cc2C(N)=O)ccn1 (relative stereo) [Example 29-13, 4-((3-aminocarbonyl-6-(cis-2-aminocyclohexylamino)-5-fluoropyridin-2-yl)amino)-N-methylpyridin-2-carboxamide]	≤ 1000
NCCNc1nc(Nc2cccc(C(=O)NC3CCCCC3)c2)c(C(N)=O)cc1F [Example 31-3, 6-((2-aminoethyl)amino)-2-((3-(cyclohexylaminocarbonyl)phenyl)amino)-5-fluoronicotinamide]	≤ 1000
NC(=O)c1cc(F)c(N[C@@H]2CCCC[C@@H]2N)nc1Nc1cccc2nsnc12 (relative stereo) [Example 6-68, 6-(cis-2-aminocyclohexylamino)-2-(benzo[c][1,2,5]thiadiazol-4-ylamino)-5-fluoronicotinamide]	≤ 1000
NC(=O)c1cc(F)c(N[C@@H]2CCCC[C@@H]2N)nc1Nc1cncc(NC(=O)c2ccccc2)c1 (relative stereo) [Example 26, 6-(cis-2-aminocyclohexylamino)-2-(5-benzoylaminopyridin-3-ylamino)-5-fluoronicotinamide]	≤ 1000
